Data on one compound can be found in US20090054521A1, “ZWITTERIONIC COMPOUNDS AND USE THEREOF” (Evonik Goldschmidt GmbH, priority 2007, published 2009).

The test system of data set [1] is skin models (reconstituted human epidermis, SkinEthic). The data set is described as follows: Anti-inflammatory effect (IL-1α) of an O/W cream after SDS damage. The settings on record: no test formulation, summed IL-1α after 24 and 48 h. The format is cell-based. As for the experimental part: IL1-α is a messenger which plays a central role in inflammatory reactions in the body. Sodium lauryl sulphate (SDS) is a skin-irritative surfactant which can cause an irritative contact dermatitis in people, is used as model irritative in subject studies and, inter alia, induces the release of IL-1α. The IL-1α concentration was determined using a commercially available test kit (human IL-1α immunoassay, R&D Systems GmbH, Wiesbaden, Germany).
The aim was to investigate whether the anti-inflammatory effect of the compounds according to the invention is also present upon application from a cosmetic formulation. For this purpose, skin models were damaged with SDS. The test formulation was then applied. 24 and 48 h after the application, the Il-1α concentration was determined.

Data set [2] has the same test system. Briefly: LDH release following damage to the cells with SDS, O/W cream. The settings on record: SDS damage for 40 min, no test formulation; total LDH after 24 and 48 h. As for the experimental part:
The LDH concentration was determined using a commercially available test kit (LDH test kit, Roche Diagnostics, Mannheim, Germany).
Sodium dodecyl sulphate (SDS) is known to attack the cell membrane and lead to increased LDH release. Using the experiment described below, the aim was to investigate to what extent Compound 2.1 can protect the cells following damage with SDS.
The skin models were damaged with SDS for 40 min. The test formulation, an O/W cream with 1 or 4% of Compound 2.1, was then applied. The LDH release was measured 24 and 48 h after application of the test formulation.
Background: Release of lactate dehydrogenase indicates damage to the cell membrane.

In the case of `CCCCCCCCCCCCOS(=O)(=O)[O-].[Na+]` [SDS, Sodium dodecyl sulphate], the “formation of the cytokine IL-1α as a result of the damage” value in data set [1] is “increased greatly”. Moreover, the “LDH release as a result of the damage” value in data set [2] is reported as “increased greatly”.
